# “And” between values parts separate entries of the source, which are not always exact repeats. Equal entries are not always repeated. “Also recorded” adds a separate entry of the source.
# How the values were obtained:
# kmo gene = test: Paternal allele knockout by adult female injection: white eye females x wild-type males; type: in vivo, Aedes aegypti; conditions: EER co-injected with RNP; for altered offspring with the endosomal release reagent: females injected at 48-52 h PBF; for mosaic offspring per injected females with the endosomal release reagent: 48-52 h PBF, 1/20 females
# Description: After mating as described in the above, females (generation −1; G−1) were blood fed and injected with P2C-Cas9 RNPs and EERs. Resulting G0 offspring were screened for kmo gene editing phenotypes (white or mosaic eyes). Genomic DNA from identified individuals was extracted using DNeasy blood and tissue kits (Qiagen) and the region spanning both kmo 460 and 519* sites amplified by PCR using primers ZA2210 (5′TTC-AAG-ACC-AGG-CCT-CAA-TC3′) (SEQ ID NO: 35) and KmR1 (5′TCA-CTA-AAC-TCA-GCC-AGT-ATC-CTA-T3′) (SEQ ID NO: 36) and cloned into the pJET1.2 vector. A minimum of 6 clones per individual were randomly selected and sequenced.
# In order to estimate the frequency of paternal gene editing, homozygous Wh-Iso8-kmo^460 females outcrossed to homozygous wild type males were injected at 48-52 h PBF. […] The region spanning the target sites from the mosaic individual collected from saponin treatment was cloned and sequenced (FIG. 10A). […] The genomic DNA from the monensin and spontaneous white eye individuals were not of suitable quality for PCR and cloning.
# recombinant Cas9 = molecular target: T1, recombinant Cas9 (Streptococcus pyogenes serotype M1, UniProt Q99ZW2); test: In vitro DNA cleavage assay; type: biochemical; conditions: gel separation
# T1 construct: vector-derived additions of pET28a-Cas9-cys (the plasmid name implies an added Cys); made in house; host or cells: E. coli BL21 and Rosetta2 (DE3) pLysS
# Experimental: Reactions were performed for 1 h at 37° C. and diagnostic bands visualized by electrophoresis in a 1% agarose/TAE gel.
# Ae. aegypti females = test: LD50 of endosomal escape reagents injected into the hemolymph 24h PBF; conditions: injected into the hemolymph of females 24h PBF; 100 females injected
# Bemisia tabaci ovaries = test: Transduction of mCherry into ovaries with vitellogenin-derived targeting peptide; type: in vivo; conditions: injection into adult females
# Description: (§1) Several targeting peptides, including […] (Bemisia tabaci, SEQ ID NO: 26), […] (Bombus impatiens, SEQ ID NO: 27), […] (Ixodes scapularis, SEQ ID NO: 28), or […] (Danio rerio, SEQ ID NO: 29), were further validated. The DNA encoding these peptides were synthesized, fused to the fluorescent reporter proteins GFP or mCherry (with a HIS tag to aid in purification), and cloned into pET28. The plasmids were then transformed into E. coli BL21 (NEB) and Rosetta2™ (DE3) pLysS competent cells, with the transformation being verified by […].
# (§2) To induce expression of the recombinant protein, a preculture was grown overnight at 30° C. in 50 mL of Luria Broth (LB) supplemented with […] chloramphenicol and […] kanamycin. After 12 hours, 10 mL of preculture was transferred to 900 mL of LB supplemented with the same antibiotics, incubated at 37° C. until OD=0.6. Then 0.05 mM isopropyl β-D-1-thiogalactopyranoside (IPTG) was added and the culture incubated overnight at 30° C.
# (§3) Cells were spun down at >10,000×g for 15 min, resuspended in 50 mL lysis buffer (20 mM Tris-HCl, pH 8.0, 300 mM NaCl, 20 mM imidazole), placed at −80° C. overnight and incubated with lysozyme (1 mg/ml) and 100 ppm of […] (PMSF) for 30 min at 4° C. The suspension was sonicated 5 times at 60% duty 5 seconds pulse 5 seconds rest (two aliquots each 20 mL), centrifuged at 13,000×g for 30 min, the supernatant removed and incubated with Ni-NTA beads (Qiagen) with rotation at 4° C. overnight. Beads were washed 3 times with 10 mL lysis buffer and eluted with 1 mL elution buffer (20 mM Tris-HCl, pH 8.0, 300 mM NaCl, 250 mM imidazole) 10 times. Eluted protein was dialyzed in a Slide-A-Lyzer dialysis cassette (Thermo Fisher) for two hours in dialysis buffer (50 mM Tris-HCl, pH 8.0, 300 mM KCl, 0.1 mM EDTA, 0.5 mM PMSF) and buffer changed every 2 hours, for 2 times, then left overnight at 4° C. with gentle agitation in fresh buffer, Protein purity was visualized by SDS-PAGE and concentration estimated using Bradford assay. […]
# Danio rerio ovaries = test: Transduction of EGFP into ovaries with vitellogenin-derived targeting peptide; type: in vivo; conditions: injection into adult females
# Description: as §1, §2
# Cells were spun down at >10,000×g for 15 min, resuspended in 50 mL lysis buffer (20 mM Tris-HCl, pH 8.0, 300 mM NaCl, 20 mM imidazole), placed at −80° C. overnight and incubated with lysozyme (1 mg/ml) and 100 ppm of […] (PMSF) for 30 min at 4° C. […]
# [1] = system: Ixodes scapularis ovaries; test: Transduction of mCherry into ovaries with vitellogenin-derived targeting peptide; type: in vivo; conditions: injection into adult females
# Description: as §1, §2, §3
# [2] = system: Anopheles gambiae oocytes; test: Ovary uptake of EGFP fusion proteins after injection into blood-fed females (fluorescence microscopy); type: in vivo
# Experimental: To show DmYP1 (or fragments thereof) act as suitable ligands to deliver protein cargo into mosquito oocytes, a DmYP1-EGFP, or fragments of DmYP1-EGFP, fusion protein was expressed and injected into the thorax of Anopheles gambiae females 12 and 24 h post-blood feeding (PBF).
# Injections were performed with an aspirator tube assembly (A5177, Sigma) fitted with a glass capillary needle. Adult females were immobilized at 4° C. following a bloodmeal and kept on ice during injection. Females were injected intrathoracically until no additional fluid would enter, at an approximate volume of 200 nl per female. To visually confirm EGFP in the ovaries following injection, ovaries were dissected, mounted in saline buffer mixed with SlowFade Gold® antifade reagent (Invitrogen), covered with a coverslip and imaged on an Olympus BX41 epifluorescent microscope. Negative controls were injected with recombinant EGFP lacking a targeting ligand.
# A deletion analysis of the DmYP1 protein was conducted to identify the smaller region that efficiently transduced cargo into mosquito ovaries. Three portions of approximately 120 amino acids (FIG. 1) were encoded on an expression plasmid linked to EGFP via a Glycine-Serine linker. Fusion proteins included the DmYP1 secretion signal at the N-terminus. The construct was inserted into the plasmid pAc5-STABLE1-Neo under control of the Drosophila Actin5C promoter. Plasmids were transfected into Drosophila S2 cells using Lipofectamine® LTX WITH Plus™ Reagent (ThermoFisher). Cell culture supernatant was collected 72 hours post-transfection, concentrated 100× using Amicon® and Centricon® Plus-70 centrifugal filter devices (Millipore) and injected into female An. gambiae 12 and 24 hours PBF. Ovaries were dissected 12, 24 and 48 h hours post-injection, dissected and visualized for EGFP fluorescence. EGFP fusion protein fused to the full length DmYP1 protein (439 amino acids) was used as a positive control, while recombinant EGFP without a targeting ligand was used as a negative control.
# mealybug ovaries = test: P2C-mediated delivery of EGFP to mealybug ovaries; type: in vivo; conditions: procedure of Example 1
# Experimental: To determine if P2C could be used in to deliver cargo in species other than mosquito, it was tested on mealybugs using the procedure of Example 1. […] Therefore, P2C is an effective targeting molecule in more than just mosquitoes.
# B. tabaci white gene = test: Knockout of the B. tabaci white gene by ReMOT Control (adult female injection); type: in vivo, Bemisia tabaci
# Experimental: The females were injected and placed on a piece of soybean leaflet in a petri dish with a moist paper towel wrapped around the stem and another paper towel on the bottom plate to prolong the life of the leaflet. Water and liquid fertilizer were added as needed. Females were removed from the leaflet 2 weeks post injection. The petri dishes were incubated at 28° C., 16L/8D cycle, in a humidified Heratherm IMH750-S reach-in chamber, and the progeny of injected females screened visually for altered eye color in nymphs or adults using an Olympus SZX7 stereomicroscope. Mutations in insects showing altered eye color were confirmed by PCR using PHIRE Tissue Direct PCR Master Mix (Thermo Fischer Scientific), the amplicon was cloned into pJET1.2, and clones were submitted for Sanger sequencing.
# For proof of principle gene editing experiments, we chose the white gene, which is an ABC transporter protein responsible for transport of ommochrome pigments into the eyes.
# Aedes aegypti ovaries = test: Transduction of mCherry into ovaries with vitellogenin-derived targeting peptide; type: in vivo; conditions: injection into adult females
# Bombus impatiens ovaries = test: as above; type: in vivo; conditions: injection into adult females
# Description: as §1, §2, §3
# [3] = injection 12 h PBF, Total of 2 replicates
# [4] = injection 24 h PBF, Total of 2 replicates
# T1 sequence (Q99ZW2 whole entry): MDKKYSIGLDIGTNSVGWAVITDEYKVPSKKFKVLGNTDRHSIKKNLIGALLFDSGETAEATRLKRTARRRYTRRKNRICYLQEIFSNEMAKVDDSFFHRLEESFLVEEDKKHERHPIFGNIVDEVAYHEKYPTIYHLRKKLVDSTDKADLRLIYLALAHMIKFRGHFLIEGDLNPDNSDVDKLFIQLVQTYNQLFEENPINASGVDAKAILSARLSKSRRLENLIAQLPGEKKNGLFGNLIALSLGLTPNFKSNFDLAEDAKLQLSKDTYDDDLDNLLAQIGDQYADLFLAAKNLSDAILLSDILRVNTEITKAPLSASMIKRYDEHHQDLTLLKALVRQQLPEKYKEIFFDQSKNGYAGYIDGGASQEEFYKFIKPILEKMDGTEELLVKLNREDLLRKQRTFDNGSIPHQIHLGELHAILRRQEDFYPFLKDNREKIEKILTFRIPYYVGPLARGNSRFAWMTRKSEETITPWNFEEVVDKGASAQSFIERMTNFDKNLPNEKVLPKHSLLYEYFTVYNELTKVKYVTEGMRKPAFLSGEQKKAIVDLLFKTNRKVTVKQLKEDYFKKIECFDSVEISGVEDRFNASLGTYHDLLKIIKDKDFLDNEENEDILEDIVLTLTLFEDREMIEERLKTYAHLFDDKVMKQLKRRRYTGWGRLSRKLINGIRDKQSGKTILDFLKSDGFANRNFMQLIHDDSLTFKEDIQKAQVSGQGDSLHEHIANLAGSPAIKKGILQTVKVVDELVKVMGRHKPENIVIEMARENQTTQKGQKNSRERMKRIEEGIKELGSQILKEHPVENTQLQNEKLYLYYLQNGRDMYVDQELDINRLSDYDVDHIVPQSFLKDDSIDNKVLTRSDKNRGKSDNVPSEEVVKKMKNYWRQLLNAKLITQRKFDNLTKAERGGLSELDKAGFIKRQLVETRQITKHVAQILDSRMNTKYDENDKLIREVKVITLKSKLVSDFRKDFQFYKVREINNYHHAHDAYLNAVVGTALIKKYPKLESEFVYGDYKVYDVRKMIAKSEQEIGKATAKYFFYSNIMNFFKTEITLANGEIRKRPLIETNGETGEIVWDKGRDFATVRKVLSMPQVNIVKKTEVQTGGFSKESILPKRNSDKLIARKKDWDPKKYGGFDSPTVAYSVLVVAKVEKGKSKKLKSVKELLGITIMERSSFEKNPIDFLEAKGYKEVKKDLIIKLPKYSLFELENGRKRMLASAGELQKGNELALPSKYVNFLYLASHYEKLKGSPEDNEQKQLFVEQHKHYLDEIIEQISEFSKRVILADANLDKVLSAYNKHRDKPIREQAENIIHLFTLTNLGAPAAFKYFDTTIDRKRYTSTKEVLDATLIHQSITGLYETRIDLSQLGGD
molecule,measurement,setting,value
Cl.N [Ammonium Chloride],altered offspring with the endosomal release reagent,kmo gene,no altered offspring
CCN(CC)CCCC(C)Nc1ccnc2cc(Cl)ccc12 (stereo not drawn) [Chloroquine],effect on Cas9 cleavage function in vitro,recombinant Cas9,did not affect Cas9 cleavage function in vitro
same,effect on Cas9 cleavage function in vitro,recombinant Cas9; listed as chloroquine,not inhibited
same,altered offspring with the endosomal release reagent,kmo gene,no altered offspring
CC[C@@]1([C@@H]2O[C@@H]([C@H]3O[C@@](O)(CO)[C@H](C)C[C@@H]3C)C[C@@H]2C)CC[C@H]([C@]2(C)CC[C@]3(C[C@H](O)[C@@H](C)[C@@H]([C@@H](C)[C@@H](OC)[C@H](C)C(=O)O)O3)O2)O1 [Monensin],LD50,Ae. aegypti females,1.0 mM
same,mosaic offspring per injected females with the endosomal release reagent,kmo gene,5%
O=C(N/N=C/c1ccc(O)c(O)c1)c1cc2ccccc2cc1O [dynasore],altered offspring with the endosomal release reagent,kmo gene,no altered offspring
DIVKTTNY,transduction of mCherry protein into ovaries,Bemisia tabaci ovaries,transduced into developing vitellogenic eggs
IVTKSKDL,transduction of EGFP protein into ovaries,Danio rerio ovaries,transduced into developing vitellogenic eggs
NFTKTKNY,transduction of mCherry protein into ovaries,[1],transduced into developing vitellogenic eggs
NLQQQRQHGKNGNQDYQDQSNEQRKNQRTSSEEDYSEEVKN (Drosophila melanogaster) [P2C],localization of transduced EGFP,[2]; embryo development,observed in yolk granules (arrows) throughout embryo development
same,ovary uptake / delivery of EGFP in deletion analysis of DmYP1,[2]; fragments expressed as EGFP fusion proteins,contained the RBR; also recorded: fully sufficient to deliver EGFP to Anopheles oocytes
same,dose dependence of P2C-mediated transduction of EGFP,"[2]; injected 12 h, ovaries dissected 24 h PBF",dose-dependent
same,delivery of EGFP into eggs,mealybug ovaries,"able to specifically deliver EGFP into the developing vitellogenic eggs, but not the immature eggs"
same,gene editing outcome by targeting peptide (in words),"B. tabaci white gene; Cas9 RNP injections, with or without saponin",did not function robustly; also recorded: did not result in any visibly edited offspring; also recorded: did not generate knockouts
QVTKTQNF,transduction of mCherry protein into ovaries,Aedes aegypti ovaries,transduced into developing vitellogenic eggs
RKSKNFDK,transduction of mCherry protein into ovaries,Bombus impatiens ovaries,transduced into developing vitellogenic eggs
Saponin [reference compound],effect of saponin as endosome escape reagent on editing,"B. tabaci white gene; higher concentrations (8, 16 μg/mL)",inhibitory; also recorded: detrimental to the process
same,LD50,Ae. aegypti females,0.024 mM
same,mosaic offspring per injected females with the endosomal release reagent,kmo gene,5%
"DmYP1-EGFP: fusion protein of full length Drosophila melanogaster Yolk Protein 1 (439 amino acids) with EGFP (protein, left off: small tags and cut ends; large carriers, fusion protein of full length Drosophila melanogaster Yolk Protein 1 (439 amino acids) with EGFP) PNGRMDNSVNQALKPSQWLSGSQLEAIPALDDFTIERLENMNLERGAELLQQVYHLSQIHHNVEPNYVPSGIQVYVPKPNGDKTVAPLNEMIQRLKQKQNFGEDEVTIIVTGLPQTSETVKKATRKLVQAYMQRYNLQQQRQHGKNGNQDYQDQSNEQRKNQRTSSEEDYSEEVKNAKTQSGDIIVIDLGSKLNTYERYAMLDIEKTGAKIGKWIVQMVNELDMPFDTIHLIGQNVGAHVAGAAAQEFTRLTGHKLRRVTGLDPSKIVAKSKNTLTGLARGDAEFVDAIHTSVYGMGTPIRSGDVDFYPNGPAAGVPGASNVVEAAMRATRYFAESVRPGNERSFPAVPANSLQQYKQNDGFGKRAYMGIDTAHDLEGDYILQVNPKSPFGRNAPAQKQSSYHGVHQAWNTNQDSKDYQ",% Follicles (Efficiency),[2]; injection 12 h PBF,100% and 98%
same,N Follicles with EGFP,[2]; injection 12 h PBF,243 and 381
same,N (showing EGFP in follicles),"[2]; injection 12 h PBF, 20 females injected per replicate",17 and 19
same,% Follicles (Efficiency),[2]; [3],99.7%^
same,N Follicles with EGFP,[2]; [3],624
same,N (showing EGFP in follicles),"[2]; injection 12 h PBF, Total of 2 replicates, 40 injected",36
same,% Follicles (Efficiency),[2]; injection 24 h PBF,98% and 99%
same,N Follicles with EGFP,[2]; injection 24 h PBF,245 and 197
same,N (showing EGFP in follicles),"[2]; injection 24 h PBF, 20 females injected per replicate",18 and 17
same,% Follicles (Efficiency),[2]; [4],98.2%^
same,N Follicles with EGFP,[2]; [4],442
same,N (showing EGFP in follicles),"[2]; injection 24 h PBF, Total of 2 replicates, 40 injected",35
same,primary oocytes with EGFP visualized,"[2]; regardless of the timing of the injection, ovaries dissected 24-72 h PBF",90-100%
